These results are taken from patent publication US20230330058A1, “SENOLYTIC COMPOUNDS AND COMPOSITIONS” (NUCHIDO LIMITED, priority 2020, published 2023).

For one series, the system named is platelets. Particulars: originally intended as anti-cancer drugs; cited from earlier work.
In series [1] the test system is senescent Human Dermal Fibroblasts (HDFs) versus non-senescent ('young') HDFs. In words: Senescence-specific assay: co-culture of labelled senescent and non-senescent cells, automated counting before and after 72 h incubation. It counts as cell-based. The note with it: for selective senolytic activity: single agent, killing senescent cells over non-senescent cells; for increase of the senolytic effect of navitoclax: uncoupler together with navitoclax, efficacy at lower navitoclax concentrations (FIGS. 11, 12; senescent and proliferating cells); for senolytic activity in galactose media: glycolysis suppressed (FIGS. 5, 13); for selective senolytic activity at concentrations reached in humans: concentrations already known to be reached safely in humans, achievable blood plasma concentrations (FIG. 3). As to the method: We developed a senescence-specific assay, employing automated counting of differentially labelled senescent and non-senescent cells in co-culture, before and after 72h incubation with each molecule or molecule combination.
Human Dermal Fibroblasts (HDFs) expressing pSLIEW (Green), or mCherry (Red) are used in the assay. The cells expressing pSLIEW (Green) are subjected to 20 Gy X-irradiation to induce senescence.
The test molecule is added to the co-culture, and the number of green and red cells are counted before and after 72 h incubation. A selective senolytic would be expected to diminish the proportion of green-expressing senescent cells, while leaving the number of red-expressing young cells unchanged or increased due to replication during the incubation period.
The experiments were carried out in 96-well plates, and the cells were imaged using fluorescent microscopy. The images were analysed with ICY software for automated cell counting, and both numbers of labelled cells and their other visible characteristics such as size were recorded.

Another series has as its system aging in animals. Particulars: cited from earlier work.
The next series concerns senescent cells. The note with it: cited from earlier work.

Entries after “also recorded” stand apart in the source; their conditions may differ. Structures can show the parent of a compound that is named as a salt.

For the molecule `Cc1c(-c2ccc(N3CCc4cccc(C(=O)Nc5nc6ccccc6s5)c4C3)nc2C(=O)O)cnn1CC12CC3CC(CC(C3)C1)C2` [A-1331852, 3-(1-(((3r,5r,7r)-adamantan-1-yl)methyl)-5-methyl-1H-pyrazol-4-yl)-6-(8-(benzo[d]thiazol-2-ylcarbamoyl)-3,4-dihydroisoquinolin-2(1H)-yl)picolinic acid], the side-effect profile entry in the series on platelets was “thrombocytopaenia”.

For `C[C@@H]1CC[C@H]2[C@@H](C)C(=O)O[C@@H]3O[C@@]4(C)CC[C@@H]1[C@]32OO4` [Artemisinin], the selective senolytic activity entry in series [1] is listed as “showed selective senolytic activity”.

Consider `CN1C(=O)C(C(=O)Nc2nncs2)c2cc3occc3cc21` (stereo not drawn) [BML-288], for which the selective senolytic activity result in series [1] was “showed selective senolytic activity”.

Take `CC(C)(C)c1cc(O)c(C(C)(C)C)cc1O` [BTBHQ, 2,5-di-tert-butylhydroquinone]: the selective senolytic activity entry in series [1] is recorded as “showed selective senolytic activity”.

With `N#CC(C#N)=NNc1cccc(Cl)c1` [CCCP, Carbonyl cyanide m-chlorophenyl hydrazone], in series [1], the “increase of the senolytic effect of navitoclax” value is “increases the senolytic effect of navitoclax”.

For the molecule `O=[N+]([O-])c1ccc(O)c([N+](=O)[O-])c1` [DNP, 2,4-Dinitrophenol], the selective senolytic activity entry in series [1] is recorded as “selective senolytic activity”.

On to `O=C(O[C@@H]1Cc2c(O)cc(O)cc2O[C@@H]1c1cc(O)c(O)c(O)c1)c1cc(O)c(O)c(O)c1` [EGCG, epigallocatechin gallate], for which the selective senolytic activity result in series [1] is on record as “showed selective senolytic activity”.

For `N#CC(C#N)=NNc1ccc(OC(F)(F)F)cc1` [FCCP, Carbonyl cyanide-p-trifluoromethoxyphenylhydrazone], in series [1], the selective senolytic activity result was “selective senolytic activity” and the “increase of the senolytic effect of navitoclax” value is given as “increases the senolytic effect of navitoclax”.

Turning to `CN1CCc2ccccc2Cc2[nH]c3ccccc3c2CC1` [LE300, 6,7,8,9,14,15-hexahydro-7-methyl-5H-indolo[3,2-f][3]benzazecine], in series [1], the selective senolytic activity entry is “showed selective senolytic activity”.

Turning to `O=C(O)CCCCC1CCSS1` (stereo not drawn) [alpha lipoic acid], in series [1], the selective senolytic activity result is recorded as “showed selective senolytic activity”.

Take `O=c1cc(-c2ccc(O)cc2)oc2cc(O)cc(O)c12` [apigenin]: the selective senolytic activity result in series [1] is listed as “showed selective senolytic activity”.

Regarding `OCCN1CCN(CCCN2c3ccccc3Sc3ccc(C(F)(F)F)cc32)CC1` [fluphenazine dihydrochloride], the selective senolytic activity entry is reported as “showed selective senolytic activity” in series [1] (dihydrochloride) and “selective senolytic activity” in series [1] (listed as fluphenazine hydrochloride, dihydrochloride).

Turning to `C=CCc1ccc(O)c(-c2ccc(O)c(CC=C)c2)c1` [honokiol], the selective senolytic activity result in series [1] is recorded as “showed selective senolytic activity”.

`C=CCc1ccc(O)c(-c2cc(CC=C)ccc2O)c1` [magnolol]: in series [1], the selective senolytic activity entry was “showed selective senolytic activity”.

As for `CN(C)C(=N)N=C(N)N` [metformin], the “senolytic activity in galactose media” value in series [1] is “senolytic at physiological doses if glycolysis is suppressed; also recorded: senolytic when glycolysis is suppressed; also recorded: displays senolytic activity”. For the same molecule, the “effect on aging in animals” value with aging in animals is “can delay aging in animals”.

With `CC1(C)CCC(c2ccc(Cl)cc2)=C(CN2CCN(c3ccc(C(=O)NS(=O)(=O)c4ccc(N[C@H](CCN5CCOCC5)CSc5ccccc5)c(S(=O)(=O)C(F)(F)F)c4)cc3)CC2)C1` [navitoclax], the “senolytic agent in animal studies” value in the series with senescent cells is given as “inducing apoptosis in senescent cells, but less in non-senescent cells”. Moreover, the side-effect profile result in the series with platelets was “thrombocytopaenia”.

As for `O=C(Nc1ccc([N+](=O)[O-])cc1Cl)c1cc(Cl)ccc1O` [niclosamide], the “selective senolytic activity at concentrations reached in humans” value in series [1] is given as “selective senolytic activity”; in series [1] (listed as Niclosamide), “selectively senolytic at concentrations that are already known to be reached safely in humans”. Besides, in series [1], the selective senolytic activity entry is on record as “showed selective senolytic activity”.

Turning to `NC(=O)c1cccnc1` [nicotinamide], the selective senolytic activity entry in series [1] was “showed selective senolytic activity”.

`CC(=O)Oc1ccccc1C(=O)Nc1ncc([N+](=O)[O-])s1` [nitazoxanide]: in series [1], the “senolytic activity in galactose media” value is recorded as “selective senolytic activity”.

`O=c1c(O)c(-c2ccc(O)c(O)c2)oc2cc(O)cc(O)c12` [quercetin]: the selective senolytic activity result in series [1] was “showed selective senolytic activity”.

`Oc1ccc(C=Cc2cc(O)cc(O)c2)cc1` [resveratrol]: the selective senolytic activity result in series [1] is “showed selective senolytic activity”.
